Target: T1, Human a-thrombin (Homo sapiens, UniProt P00734)
T1 construct: Human a-thrombin, Sigma Chemical Co. or Hematologic Technologies; purchased Sigma Chemical Co. or Hematologic Technologies
Assay: Test B: thrombin inhibition with a chromogenic, robotic assay
Format: biochemical
Details: chromogenic substrate S-2366, 40 minutes incubation at 37° C.
Procedure: Determination of Thrombin Inhibition with a Chromogenic, Robotic Assay
The thrombin inhibitor potency is measured with a chromogenic substrate method, in a Plato 3300 robotic microplate processor (Rosys AG, CH-8634 Hombrechtikon, Switzerland), using 96-well, half volume microtitre plates (Costar, Cambridge, Mass., USA; Cat No 3690). Stock solutions of test substance in DMSO (72 μL), 0.1-1 mmol/L, are diluted serially 1:3 (24+48 μL) with DMSO to obtain ten different concentrations, which are analysed as samples in the assay. 2 μL of test sample is diluted with 124 μL assay buffer, 12 μL of chromogenic substrate solution (S-2366, Chromogenix, Mölndal, Sweden) in assay buffer and finally 12 μL of a-thrombin solution (Human a-thrombin, Sigma Chemical Co. or Hematologic Technologies) in assay buffer, are added, and the samples mixed. The final assay concentrations are: test substance 0.00068-133 μmol/L, S-2366 0.30 mmol/L, a-thrombin 0.020 NIHU/mL. The linear absorbance increment during 40 minutes incubation at 37° C. is used for calculation of percentage inhibition for the test samples, as compared to blanks without inhibitor. The IC50-robotic value, corresponding to the inhibitor concentration which causes 50% inhibition of the thrombin activity, is calculated from a log concentration vs. % inhibition curve.

IC50	Compound
169 nM	Cc1cc(N)nc(C)c1CNC(=O)Cn1c(C)cc(=O)n(NCC(F)(F)c2ccccn2)c1=O [5(a), N-[(6-Amino-2,4-dimethylpyridin-3-yl)methyl]-2-[3-[(2,2-difluoro-2-pyridin-2-ylethyl)amino]-6-methyl-2,4-dioxo-3,4-dihydropyrimidin-1(2H)-yl]acetamide]
32.7 nM	Cc1cc(=O)n(NCC(F)(F)c2ccccn2)c(=O)n1CC(=O)NCc1cc(Cl)ccc1CN [Example 2, N-[2-(Aminomethyl)-5-chlorobenzyl]-2-[3-[(2,2-difluoro-2-pyridin-2-ylethyl)-amino]-6-methyl-2,4-dioxo-3,4-dihydropyrimidin-1(2H)-yl]acetamide]
